The target in this assay is T1, hGLUT8 (Homo sapiens, UniProt Q9NY64, E7R/E8R).
T1 construct: expressed in transfected cells; host or cells: HEK293 (HEK293-FLIP, native hGLUT1 knocked down)
T1 sequence (Q9NY64 1-477 E7R/E8R): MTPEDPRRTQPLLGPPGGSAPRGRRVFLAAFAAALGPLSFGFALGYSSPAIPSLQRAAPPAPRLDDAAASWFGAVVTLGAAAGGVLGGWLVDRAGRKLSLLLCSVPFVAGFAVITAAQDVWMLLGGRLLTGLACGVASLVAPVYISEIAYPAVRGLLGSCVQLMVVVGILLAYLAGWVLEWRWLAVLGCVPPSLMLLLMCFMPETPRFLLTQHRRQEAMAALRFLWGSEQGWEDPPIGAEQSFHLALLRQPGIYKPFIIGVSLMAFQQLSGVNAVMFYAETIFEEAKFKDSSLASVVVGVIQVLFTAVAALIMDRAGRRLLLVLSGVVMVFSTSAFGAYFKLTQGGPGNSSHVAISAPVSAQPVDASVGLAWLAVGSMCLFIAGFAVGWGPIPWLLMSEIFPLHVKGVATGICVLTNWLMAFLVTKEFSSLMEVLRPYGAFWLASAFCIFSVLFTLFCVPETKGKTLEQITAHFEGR
The assay can be described thus: 2-DG uptake by HEK293 cells overexpressing hGLUT8. The class given is cell-based. From the text:
Generation of HEK293 cells overexpressing PfHT and human GLUTs 1–4 were described elsewhere. Briefly, HEK293 cells were transfected with pcDNA3.1 FLII12Pglu-7006 (Addgene), containing the fluorescence resonance energy transfer (FRET) glucose sensor (HEK293-FLIP) and PfHT, human GLUT1 (hGLUT1), hGLUT2, hGLUT3, hGLUT4, hGLUT5 or hGLUT8 using Optifect (Life Technologies) according to manufacturer’s specifications. To increase retention of GLUT8 at the plasma membrane, the dileucine sorting signal E^7E^8XXXLL was modified to R^7R^8XXXLL as described in [17]. Stable transfectants were selected for G418 and hygromycin resistance to select for FRET sensor and hexose transporter, respectively. HEK293-FLIP cells were also used to generate cells stably transfected with FLAG-tagged PfHT (FTPfHT). FLAG tag ([…]) followed by a triple glycine linker and a tobacco etch virus (TEV) protease site (ENLYFQS) followed by a triple glycine linker was added to the N-terminus of PfHT via PCR [18] using Phusion Hot Start II High-Fidelity DNA Polymerase (Fisher Scientific). Single clones were selected by comparing their abilities to transport glucose as assayed via FRET and radiolabeled hexose uptake. In all cell lines, except for HEK293 cells overexpressing hGLUT1 and hGLUT5, native hGLUT1 was knocked down using shRNA as described elsewhere. Transcript levels of the individual GLUTs expressed in each cell line are as described in [13, 15] and in S1 Fig.
Glucose uptake by P. falciparum was performed essentially as described. P. falciparum strain 3D7 was cultured in 100 mm tissue culture dishes (Techno Plastic Products) in a 2% suspension of human erythrocytes and RPMI 1640 medium until reaching > 7.5% parasitemia. Cells were pelleted via centrifugation and resuspended in RPMI 1640 medium. To determine the uptake of radiolabeled glucose into the parasite, parasites were isolated from infected erythrocytes by permeablization with saponin (0.05 w/v), followed by centrifugation, aspiration of supernatant and washing of the pellet 3X with saline solution (135 mM NaCl, 2 mM KCl, 25 mM HEPES, 0.2 mM glucose and 1 mM MgCl2; pH 7.1) to remove cellular debris. WU-1 or DMSO vehicle were added to 100 μl parasites (resuspended in saline) 5 min prior to the addition of 100 μl [^14C]2-DOG (0.2- μCi/ml final concentration). 2-DG uptake was stopped after 2 min by layering the entire reaction over 300 μl of an oil mixture (5:4 mix of dibutyl phthalate / dinonyl phthalate) in Eppendorf tubes and centrifuged at 15,850 × g for 2 mins. The ratio of the estimated intracellular concentration of radiolabel relative to the extracellular concentration were calculated as described. Uptake of radiolabeled hexose into HEK293 cells was measured in glucose-free HBSS as described previously. Briefly, cells were plated at 400,000 cells/well overnight at 37°C in 24-well plates pre-treated with PEI. After 30-min incubation at 37°C in glucose-free HBSS in the presence of vehicle or increasing concentrations of compound, 2-DG uptake was measured in glucose-free HBSS for 4 min at 37°C. Cultures were washed in ice-cold 1X PBS and lysed in 0.1% Triton X-100 in 1X PBS. Radiolabeled hexose uptake was determined by liquid scintillation counting (Ultima Gold, Thermo Fisher) and normalized to total protein per well. Uptake data are plotted as percent uptake relative to vehicle-treated cells. Kinetic analyses were performed using the indicated concentrations of substrate and WU-1, with quenching of uptake after 1 min incubation. Incubation times had been previously determined as being in the linear range of time-dependent radiolabeled hexose uptake (2 min for 2-DG uptake into freed parasites; 2 and 4 min for D-Frc and 2-DG uptake HEK cell lines, respectively). Data were fit by least squares nonlinear regression analysis using GraphPad Prism 6.0 software.

Values joined by “and” are separate entries in the source; they are usually repeats but may differ in a detail not shown here. Equal values may be shown once. Read-outs that look alike come from different tables or passages of the source.

As to `Cc1ccc(S(=O)(=O)CCNC(=O)c2c(-c3c(Cl)cccc3Cl)noc2C)cc1` [WU-1, 3-(2,6-dichlorophenyl)-5-methyl-N-[2-(4-methylbenzenesulfonyl)ethyl]-1,2-oxazole-4-carboxamide], the IC50 by setting is: (GLUT8, 2-DG Uptake, average of Expt 1-3, read-out: AVE IC50) 25 µM; (GLUT8, 2-DG Uptake, single experiments Expt 1-3, read-out: IC50) 39.8 µM and 19.9 µM and 15.3 µM; (GLUT8 cell line, read-out: IC50, 2-DG uptake) 25 ± 7.5 µM. The remaining activity at 0.001 µM (HEK293, 4 min, GLUT8, concentration 0.001 µM, Expt 1-3, read-out: 2-DG Uptake AVE) is 100%. Where the note is “HEK293, 4 min, GLUT8, concentration 0.3125 µM, read-out: 2-DG Uptake AVE”, the remaining activity at 0.3125 µM stood at 104%. Besides, the remaining activity at 0.625 µM (HEK293, 4 min, GLUT8, concentration 0.6250 µM, read-out: 2-DG Uptake AVE) turned out to be 95.3%. Further, where the note is “HEK293, 4 min, GLUT8, concentration 1.250 µM, read-out: 2-DG Uptake AVE”, the remaining activity at 1.25 µM turned out to be 98.6%. The remaining activity at 2.5 µM (HEK293, 4 min, GLUT8, concentration 2.500 µM, read-out: 2-DG Uptake AVE) worked out at 97.5%. Moreover, the remaining activity at 5 µM (HEK293, 4 min, GLUT8, concentration 5.0 µM, read-out: 2-DG Uptake AVE) came out at 88%. For the same molecule, under “HEK293, 4 min, GLUT8, concentration 20 µM, read-out: 2-DG Uptake AVE”, the remaining activity at 20 µM worked out at 60.6%. Further, where the note is “HEK293, 4 min, GLUT8, concentration 80 µM, read-out: 2-DG Uptake AVE”, the remaining activity at 80 µM stood at 41.2%. Further, the remaining activity at 160 µM (HEK293, 4 min, GLUT8, concentration 160 µM, read-out: 2-DG Uptake AVE) amounted to 25.7%. Moreover, the remaining activity at 225 µM (HEK293, 4 min, GLUT8, concentration 225 µM, read-out: 2-DG Uptake AVE) came out at 23.9%. Further, under “calculated from IC50s”, the “Selectivity Index (PfHT over GLUT8), 2-DG” value is listed as 4.3.

The IC50 is the point on the concentration scale where inhibition reaches its midpoint.

Source of the values: PMC6508677, “Identification of druggable small molecule antagonists of the Plasmodium falciparum hexose transporter PfHT and assessment of ligand access to the glucose permeation pathway via FLAG-mediated protein engineering” (PLoS ONE, 2019).
